“And” between values parts separate entries of the source, which are not always exact repeats. Equal values may be shown once. “Also recorded” adds a separate entry of the source.
Assays:
HiBiT-5-HT2A = biological target: T1, HiBiT-5-HT2A (Homo sapiens, UniProt P28223); assay: NanoBRET Target Engagement competitive displacement of […], HiBiT-5-HT2A transiently expressed in HEK293 cells; details: equilibrium competitive displacement, Cheng-Prusoff; read-out: KI (binding affinity) at 5-HT2A
T1 construct: expressed in transfected cells; host or cells: HEK293 (transient)

HiBiT-5-HT1A = biological target: T2, HiBiT-5-HT1A (Homo sapiens, UniProt P08908); assay: cell-based; type: binding
T2 construct: expressed in transfected cells; host or cells: HEK293 (transient)

[1] = tested on: wildtype mouse prefrontal cortex layer V pyramidal neurons; assay: Brain slice current clamp recording of membrane properties and action potential firing; type: cell-based
Protocol: Animals: Wildtype C57BL/6J mice were obtained from the Jackson Labs. Male and female pups, age postnatal day (P) 17-23, were used for the electrophysiological experiments. Animals were housed in the Unit for Laboratory Animal Medicine at the University of Michigan. All procedures were performed in accordance with the NIH and approved by the University of Michigan IACUC.
Brain Slice Preparation: Acute brain slices were prepared as described previously (Hull et al., Ann Clin Transl Neur., 2020; 7 (11): 2137-2149). Briefly, mice were anesthetized with isoflurane anesthesia and decapitated. Brains were carefully removed from the skull and placed in ice-cold carbogen-aerated slice solution containing (in mM): 110 sucrose, 62.5 NaCl, 2.5 KCl, 6 MgCl2, 1.25 KH2PO4, 26 NaHCO3, 0.5 CaCl2), 20 D-glucose, pH 7.35-7.40. Brains were blocked and slices were cut using a vibrating microtome (Electron Microscopy Sciences) in 250 μm thick coronal sections from prefrontal cortex. Slices were incubated in an aerated holding chamber containing slice solution for 30 minutes at room temperature and then incubated in 1:1 slice: artificial cerebrospinal solution (ACSF) for 30 minutes at 35° C. ACSF contained in mM (125 NaCl; 2.5 KCl; 1 MgCl2; 1.25 KH2PO4; 26 NaHCO3; 2 CaCl2); and 20 D-glucose (pH 7.35-7.40). Slices were then aerated in a holding chamber containing 100% ACSF for at least 30 min at room temperature before recording.
Action Potential Recording and Analysis: Individual brain slices were placed in an RC-26 recording chamber (Warner Instruments) and superfused with aerated ACSF at a flowrate of 2-3 mL/min equipped with an inline heater (Warner Instruments) to maintain the recording temperature at 33-35° C. Layer 5 pyramidal neurons were identified based on their large soma size, shape, and location using an AIR upright confocal microscope (Nikon) equipped with IR-DIC optics and a 40× water immersion objective. Only vertically oriented pyramidal cells were selected for recording. […] The junction potential was calculated to be 14.3 mV using the P-clamp junction potential calculator and all values presented in the study are uncorrected. Following break in at −94.3 mV in voltage clamp mode, the resting membrane potential was defined as the membrane potential in current clamp <10 s after initial break in for baseline or immediately after XOB perfusion. Repetitive action potential firing was elicited in whole-cell current clamp from the resting membrane potential in 1 s long current injections in 10 pA steps from −20 pA to +400 pA. There was a 1 s long 0 pA current injection between each sweep. Data were acquired at 20 kHz and were filtered at 10 kHz. Cells with an access resistance measured in voltage clamp >20 MΩ or RMP more depolarized than −64.3 mV were not used. Access resistance and pipette capacitance were compensated using bridge balance. Whole cell capacitance was measured using P-clamp whole cell capacitance compensation in voltage clamp with 10 mV depolarizing steps from −94.3 mV. Automated action potential (AP) quantification and analysis was performed using custom MATLAB (MathWorks) software. APs were defined as the voltage crossing 0 mV after a dV/dt>10 mV/ms, defined here as the AP threshold. Input resistance was calculated using Ohm's law with a −10 pA current injection from the resting membrane potential after 250 ms.

T2 sequence (P08908 whole entry): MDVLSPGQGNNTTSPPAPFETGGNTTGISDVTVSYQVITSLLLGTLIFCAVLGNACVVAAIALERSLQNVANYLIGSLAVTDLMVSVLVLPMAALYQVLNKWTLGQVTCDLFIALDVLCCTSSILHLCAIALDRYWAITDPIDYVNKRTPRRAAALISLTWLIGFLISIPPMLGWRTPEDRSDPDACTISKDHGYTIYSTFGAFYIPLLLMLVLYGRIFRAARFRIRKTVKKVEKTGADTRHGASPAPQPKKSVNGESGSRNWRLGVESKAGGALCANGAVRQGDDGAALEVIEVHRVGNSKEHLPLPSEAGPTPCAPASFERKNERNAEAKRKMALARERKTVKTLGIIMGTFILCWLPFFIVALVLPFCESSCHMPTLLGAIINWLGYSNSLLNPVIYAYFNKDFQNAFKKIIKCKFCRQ
T1 sequence (P28223 whole entry): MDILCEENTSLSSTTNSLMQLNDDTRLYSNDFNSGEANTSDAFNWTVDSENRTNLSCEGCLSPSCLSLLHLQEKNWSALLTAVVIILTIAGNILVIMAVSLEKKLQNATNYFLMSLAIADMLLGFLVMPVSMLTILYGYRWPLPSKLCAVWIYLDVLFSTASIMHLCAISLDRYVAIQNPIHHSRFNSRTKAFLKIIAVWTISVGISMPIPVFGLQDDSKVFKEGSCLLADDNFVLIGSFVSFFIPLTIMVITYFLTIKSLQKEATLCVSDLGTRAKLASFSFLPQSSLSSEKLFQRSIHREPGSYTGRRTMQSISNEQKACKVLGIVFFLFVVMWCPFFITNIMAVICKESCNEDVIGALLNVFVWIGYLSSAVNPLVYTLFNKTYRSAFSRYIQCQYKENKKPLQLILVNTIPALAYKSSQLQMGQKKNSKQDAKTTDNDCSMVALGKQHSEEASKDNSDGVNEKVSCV

For `COc1cc(CCNCCCCCCOCCCCc2ccccc2)c(OC)cc1Br` [XOB, N-(4-bromo-2,5-dimethoxyphenethyl)-6-(4-phenylbutoxy)hexan-1-amine], which Ki (HiBiT-5-HT2A) is on record?
The Ki was 2600 nM and 2000 to 3000 nM.

What about the “binding affinity at 5-HT1A (in words)” value (HiBiT-5-HT1A) of the same compound?
Its value is “no measurable affinity; also recorded: negligible binding affinity”.

And the Ki (HiBiT-5-HT1A; equilibrium competitive displacement, Cheng-Prusoff, read-out: KI (binding affinity) at 5-HT1A)?
Its Ki is > 10000 nM.

And the “First AP Max dv/dt” value ([1]; 10 μM)?
Its value is 402.68±46.20 mV/ms and 402.68 mV/ms.

What about the “First AP Min dv/dt” value ([1]; 10 μM) of the same compound?
The value was −91.32±8.95 mV/ms.

What about the “First AP Peak Amplitude” value ([1]; 10 μM) of the same compound?
Its value is 41.21±2.92 mV and 41.21 ± 2.29 mV.

And the “First AP Threshold” value ([1]; 10 μM)?
Its value is −38.43±1.23 mV.

And the “Input Resistance” value ([1]; 10 μM)?
Its value is 100.08±30.18 MΩ.

What about the “Max Firing Rate @ 300 pA” value ([1]; 10 μM) of the same compound?
The value was 12.25 ± 1.53 Hz.

What about the “Max Firing Rate @ 400 pA” value ([1]; 10 μM) of the same compound?
The value was 14±1.82 Hz.

And the “Resting Vm” value ([1]; 10 μM)?
Its value is −63.25±1.15 mV.

And the “Spike Width” value ([1]; 10 μM)?
The value was 0.76 ± 0.06 ms.

What about the “depolarization of the resting membrane potential” value ([1]; 10 μM vs baseline) of the same compound?
The value was “+8.45±1.15 mV”.

What about the “reduction in maximum firing frequency at 400 pA current injections” value ([1]; 10 μM vs baseline) of the same compound?
Its value is ~12 Hz.
